Some results are limits rather than exact numbers.

In this test the target is T1, c-Met kinase (recombinant c-Met) (Homo sapiens, UniProt P08581).
T1 construct: 0.27 nM recombinant c-Met
T1 sequence (P08581 25-1390): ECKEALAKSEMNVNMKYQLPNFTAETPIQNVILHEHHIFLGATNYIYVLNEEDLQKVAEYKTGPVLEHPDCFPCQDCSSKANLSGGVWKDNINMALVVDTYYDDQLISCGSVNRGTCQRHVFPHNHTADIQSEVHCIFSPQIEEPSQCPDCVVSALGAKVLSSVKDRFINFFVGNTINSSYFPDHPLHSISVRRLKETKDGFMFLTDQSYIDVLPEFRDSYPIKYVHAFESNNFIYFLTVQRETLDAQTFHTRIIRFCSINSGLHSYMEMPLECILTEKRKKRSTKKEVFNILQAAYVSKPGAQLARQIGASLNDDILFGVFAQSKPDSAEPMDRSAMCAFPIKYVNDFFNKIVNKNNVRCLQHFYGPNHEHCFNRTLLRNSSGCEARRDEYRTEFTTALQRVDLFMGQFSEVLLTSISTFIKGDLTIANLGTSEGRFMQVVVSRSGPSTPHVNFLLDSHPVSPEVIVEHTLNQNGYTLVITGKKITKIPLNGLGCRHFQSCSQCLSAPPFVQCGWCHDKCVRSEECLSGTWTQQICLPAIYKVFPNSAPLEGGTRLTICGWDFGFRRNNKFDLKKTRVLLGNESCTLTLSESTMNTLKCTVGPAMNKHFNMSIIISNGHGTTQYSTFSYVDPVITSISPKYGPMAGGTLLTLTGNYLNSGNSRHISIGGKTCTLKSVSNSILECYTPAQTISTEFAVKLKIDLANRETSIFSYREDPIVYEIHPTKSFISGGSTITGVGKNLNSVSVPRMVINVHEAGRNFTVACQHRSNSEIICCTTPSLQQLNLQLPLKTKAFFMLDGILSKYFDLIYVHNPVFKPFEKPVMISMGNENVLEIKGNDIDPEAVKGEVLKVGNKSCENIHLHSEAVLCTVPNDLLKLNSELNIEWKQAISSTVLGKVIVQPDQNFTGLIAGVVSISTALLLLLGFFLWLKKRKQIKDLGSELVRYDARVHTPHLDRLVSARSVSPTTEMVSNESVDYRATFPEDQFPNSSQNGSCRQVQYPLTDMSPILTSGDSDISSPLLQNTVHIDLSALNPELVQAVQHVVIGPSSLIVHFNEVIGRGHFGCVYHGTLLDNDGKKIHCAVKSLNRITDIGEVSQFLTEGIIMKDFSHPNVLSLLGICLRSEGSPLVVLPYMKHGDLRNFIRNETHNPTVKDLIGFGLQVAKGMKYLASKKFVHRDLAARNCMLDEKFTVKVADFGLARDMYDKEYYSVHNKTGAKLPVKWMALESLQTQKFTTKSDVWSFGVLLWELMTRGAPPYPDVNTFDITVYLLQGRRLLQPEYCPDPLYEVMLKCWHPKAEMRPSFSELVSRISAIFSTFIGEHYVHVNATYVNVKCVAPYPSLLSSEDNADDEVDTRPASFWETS
Nature of the test: In vitro kinase assay I (homogeneous time-resolved fluorescence tyrosine kinase assay). Type of test: biochemical. The essentials: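 Biotinylated peptide (0.5 μM) phosphorylated by 0.2 nM recombinant c-Met with 50 μM MgATP, 60 min at room temperature, pH 7.4, 5% DMSO. EDTA stop; HTRF read with Eu-anti-phosphotyrosine antibody and streptavidin-APC. IC50 from 4-parameter logistic fit.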
Regarding `CCOC(=O)Nc1cccc(Cc2nn(-c3ccccc3)ccc2=O)c1` [Example 642, Ethyl {3-[(4-oxo-1-phenyl-1,4-dihydropyridazin-3-yl)methyl]phenyl}carbamate], the 50% inhibitory concentration (IC50) lay within 100 to 1000 nM.
With `CCOC(=O)Nc1cccc(Cc2nn(-c3cnn(CCO)c3)ccc2=O)c1` [Example 643, Ethyl [3-({1-[1-(2-hydroxyethyl)-1H-pyrazol-4-yl]-4-oxo-1,4-dihydropyridazin-3-yl}methyl)phenyl]carbamate] the figure was below 100 nM; with `CCCOC(=O)Nc1cccc(Cc2nn(-c3cnn(CCO)c3)ccc2=O)c1` [Example 644, propyl [3-({1-[1-(2-hydroxyethyl)-1H-pyrazol-4-yl]-4-oxo-1,4-dihydropyridazin-3-yl}methyl)phenyl] carbamate], below 100 nM; with `CC(C)COC(=O)Nc1cccc(Cc2nn(-c3cnn(CCO)c3)ccc2=O)c1` [Example 645, 2-methylpropyl [3-({1-[1-(2-hydroxyethyl)-1H-pyrazol-4-yl]-4-oxo-1,4-dihydropyridazin-3-yl}methyl)phenyl] carbamate], below 100 nM.
Consider `CCOC(=O)Nc1cccc(Cc2nn(-c3cccc(O)c3)ccc2=O)c1` [Example 646, Ethyl(3-{[1-(3-hydroxyphenyl)-4-oxo-1,4-dihydropyridazin-3-yl]methyl}phenyl)carbamate], for which the IC50 is below 100 nM.
With `CCOC(=O)Nc1cccc(Cc2nn(-c3cnn(CCN)c3)ccc2=O)c1` [Example 647, Ethyl [3-({1-[1-(2-aminoethyl)-1H-pyrazol-4-yl]-4-oxo-1,4-dihydropyridazin-3-yl}methyl)phenyl]carbamate], the IC50 was in the range of 100 to 1000 nM.
`CC(C)COC(=O)Nc1cccc(Cc2nn(-c3cnn(CCN)c3)ccc2=O)c1` [Example 648, 2-methylpropyl [3-({1-[1-(2-aminoethyl)-1H-pyrazol-4-yl]-4-oxo-1,4-dihydropyridazin-3-yl}methyl)phenyl]carbamate]: the IC50 was below 100 nM.
Take `CCOC(=O)Nc1cccc(Cc2nn(-c3cccc(OC)c3)ccc2=O)c1` [Example 649, Ethyl(3-{[1-(3-methoxyphenyl)-4-oxo-1,4-dihydropyridazin-3-yl]methyl}phenyl)carbamate]: the IC50 was 100 to 1000 nM.
On to `CCOC(=O)Nc1cccc(Cc2nn(-c3cccc(OCC)c3)ccc2=O)c1` [Example 650, Ethyl(3-{[1-(3-ethoxyphenyl)-4-oxo-1,4-dihydropyridazin-3-yl]methyl}phenyl)carbamate], for which the IC50 lay in the range of 100 to 1000 nM.
Turning to `CCOc1cnc(-c2cccc(Cc3nn(-c4cnn(C5COC5)c4)ccc3=O)c2)nc1` [Example 660, 3-[3-(5-Ethoxypyrimidin-2-yl)benzyl]-1-[1-(oxetan-3-yl)-1H-pyrazol-4-yl]pyridazin-4(1H)-one], the IC50 was below 100 nM.
As to `CCOc1cnc(-c2cccc(Cc3nn(-c4cnn(C5CN(C(=O)OC(C)(C)C)C5)c4)ccc3=O)c2)nc1` [Example 661, tert-butyl 3-(4-{3-[3-(5-ethoxypyrimidin-2-yl)benzyl]-4-oxopyridazin-1(4H)-yl}-1H-pyrazol-1-yl)acetidine-1-carboxylate], the half-maximal inhibitory concentration (IC50) is below 100 nM.
Consider `CCOc1cnc(-c2cccc(Cc3nn(-c4cnn(CC(=O)N(C)C)c4)ccc3=O)c2)nc1` [Example 662, 2-(4-{3-[3-(5-ethoxypyrimidin-2-yl)benzyl]-4-oxopyridazin-1(4H)-yl}-1H-pyrazol-1-yl)-N,N-dimethylacetamide], for which the IC50 fell in the range of 100 to 1000 nM.
Next, `CCOc1cnc(-c2cccc(Cc3nn(-c4cnn(C5CNC5)c4)ccc3=O)c2)nc1` [Example 663, 1-(1-Azetidin-3-yl-1H-pyrazol-4-yl)-3-[3-(5-ethoxypyrimidin-2-yl)benzyl]pyridazin-4(1H)-one]: below 100 nM.
For `CCOc1cnc(-c2cccc(Cc3nn(-c4cnn(C5CCNCC5)c4)ccc3=O)c2)nc1` [Example 664, 3-[3-(5-ethoxypyrimidin-2-yl)benzyl]-1-(1-piperidin-4-yl-1H-pyrazol-4-yl)pyridazin-4(1H)-one], the IC50 is below 100 nM.
In the case of `CCOc1cnc(-c2cccc(Cc3nn(-c4cnn(CC(C)(C)O)c4)ccc3=O)c2)nc1` [Example 666, 3-[3-(5-Ethoxypyrimidin-2-yl)benzyl]-1-[1-(2-hydroxy-2-methylpropyl)-1H-pyrazol-4-yl]pyridazin-4(1H)-one], the IC50 is below 100 nM.
As to `CC(C)COC(=O)Nc1cccc(Cc2nn(-c3cnn(CCCN(C)C)c3)ccc2=O)c1` [Example 667, 2-Methylpropyl {3-[(1-{1-[3-(dimethylamino)propyl]-1H-pyrazol-4-yl}-4-exo-1,4-dihydropyridazin-3-yl)methyl]phenyl}carbamate], the IC50 fell in the range of 100 to 1000 nM.
As to `CCOc1cnc(-c2cccc(Cc3nn(-c4cnn(C5CN(C)C5)c4)ccc3=O)c2)nc1` [Example 668, 3-[3-(5-Ethoxypyrimidin-2-yl)benzyl]-1-[1-(1-methylazetidin-3-yl)-1H-pyrazol-4-yl]pyridazin-4(1H)-one], the IC50 was 100 to 1000 nM.
With `O=c1ccn(-c2ccccc2)nc1Cc1cccc(-c2ncccn2)c1` [Example 669, 1-Phenyl-3-[3-(pyrimidin-2-yl)benzyl]pyridazin-4(1H)-one], the IC50 lay in the range of 100 to 1000 nM.
Take `Cn1cnc(-c2cccc(Cc3nn(-c4ccccc4)ccc3=O)c2)n1` [Example 670, 3-[3-(1-Methyl-1H-1,2,4-triazol-3-yl)benzyl]-1-phenylpyridazin-4(1H)-one]: the half-maximal inhibitory concentration (IC50) was 100 to 1000 nM.
Consider `O=c1ccn(-c2ccccc2)nc1Cc1cccc(-c2ccccn2)c1` [Example 671, 1-phenyl-3-(3-pyridin-2-ylbenzyl) pyridazin-4(1H)-one], for which the IC50 lay within 1000 to 3000 nM.
With `Cc1cnc(-c2cccc(Cc3nn(-c4cnn(C)c4)ccc3=O)c2)[nH]1` [Example 672, 3-[3-(5-Methyl-1H-imidazol-2-yl)benzyl]-1-(1-methyl-1H-pyrazol-4-yl)pyridazin-4(1H)-one], the IC50 was in the range of 1000 to 3000 nM.
As for `Cn1cnc(-c2cccc(Cc3nn(-c4cnn(C)c4)ccc3=O)c2)c1` [Example 673, 3-[3-(1-methyl-1H-imidazol-4-yl)benzyl]-1-(1-methyl-1H-pyrazol-4-yl)pyridazin-4(1H)-one], the 50% inhibitory concentration (IC50) is 100 to 1000 nM.
As to `CCOC(=O)c1coc(-c2cccc(Cc3nn(-c4cnn(C)c4)ccc3=O)c2)n1` [Example 674, ethyl 2-(3-{[1-(1-methyl-1H-pyrazol-4-yl)-4-oxo-1,4-dihydropyridazin-3-yl]methyl}phenyl)-1,3-oxazole-4-carboxylate], the IC50 lay in the range of 1000 to 3000 nM.
Next, `CCOC(=O)c1cnc(-c2cccc(Cc3nn(-c4cnn(C)c4)ccc3=O)c2)o1` [Example 675, ethyl 2-(3-{[1-(1-methyl-1H-pyrazol-4-yl)-4-oxo-1,4-dihydropyridazin-3-yl]methyl}phenyl)-1,3-oxazole-5-carboxylate]: 100 to 1000 nM; `Cn1cc(-n2ccc(=O)c(Cc3cccc(-c4ncc(CO)s4)c3)n2)cn1` [Example 676, 3-{3-[5-(hydroxymethyl)-1,3-thiazol-2-yl]benzyl}-1-(1-methyl-1H-pyrazol-4-yl)pyridazin-4(1H)-one]: 100 to 1000 nM.
As to `CCOc1ccc(-c2cccc(Cc3nn(-c4cnn(C)c4)ccc3=O)c2)nc1` [Example 677], the IC50 was below 100 nM.
Turning to `CC(C)COC(=O)Nc1cccc(Cc2nn(-c3cnn(CCCC(=O)N(C)C)c3)ccc2=O)c1` [Example 696, 2-Methylpropyl {3-[(1-{1-[4-(dimethylamino)-4-oxobutyl]-1H-pyrazol-4-yl}-4-oxo-1,4-dihydropyridazin-3-yl)methyl]phenyl}carbamate], the half-inhibitory concentration (IC50) is below 100 nM.
For `CNC(=O)CCCn1cc(-n2ccc(=O)c(Cc3cccc(NC(=O)OCC(C)C)c3)n2)cn1` [Example 697, 2-methylpropyl {3-[(1-{1-[4-(methylamino)-4-oxobutyl]-1H-pyrazol-4-yl}-4-oxo-1,4-dihydropyridazin-3-yl)methyl]phenyl} carbamate], the IC50 was below 100 nM.
Consider `CC(C)COC(=O)Nc1cccc(Cc2nn(-c3cnn(CCCC(=O)N4CCOCC4)c3)ccc2=O)c1` [Example 698, 2-methylpropyl [3-({1-[1-(4-morpholin-4-yl-4-oxobutyl)-1H-pyrazol-4-yl]-4-foundoxo-1,4-dihydropyridazin-3-yl}methyl)phenyl] carbamate], for which the IC50 is below 100 nM.
`CC(C)COC(=O)Nc1cccc(Cc2nn(-c3cnn(CCCC(=O)N4CCCCC4)c3)ccc2=O)c1` [Example 699, 2-methylpropyl [3-({4-oxo-1-[1-(4-oxo-4-piperidin-1-ylbutyl)-1H-pyrazol-4-yl]-1,4-dihydropyridazin-3-yl}methyl)phenyl] carbamate]: the IC50 was below 100 nM.
Take `CC(C)COC(=O)Nc1cccc(Cc2nn(-c3cnn(CCCC(=O)N4CCCC4)c3)ccc2=O)c1` [Example 700, 2-methylpropyl [3-({4-oxo-1-[1-(4-oxo-4-pyrrolidin-1-ylbutyl)-1H-pyrazol-4-yl]-1,4-dihydropyridazin-3-yl}methyl)phenyl] carbamate]: the IC50 was below 100 nM.
Turning to `CC(C)COC(=O)Nc1cccc(Cc2nn(-c3cnn(CCCC(=O)NC4COC4)c3)ccc2=O)c1` [Example 701, 2-methylpropyl {3-[(1-{1-[4-(oxetan-3-ylamino)-4-oxobutyl]-1H-pyrazol-4-yl}-4-oxo-1,4-dihydropyridazin-3-yl)methyl]phenyl} carbamate], the IC50 was below 100 nM.
Next, `CNC(=O)CCn1cc(-n2ccc(=O)c(Cc3cccc(NC(=O)OCC(C)C)c3)n2)cn1` [Example 702, 2-methylpropyl {3-[(1-{1-[3-(methylamino)-3-oxopropyl]-1H-pyrazol-4-yl}-4-oxo-1,4-dihydropyridazin-3-yl)methyl]phenyl} carbamate]: below 100 nM.
Take `CC(C)COC(=O)Nc1cccc(Cc2nn(-c3cnn(CCC(=O)N4CCOCC4)c3)ccc2=O)c1` [Example 703, 2-methylpropyl [3-({1-[1-(3-morpholin-4-yl-3-oxopropyl-1H-pyrazol-4-yl]-4-oxo-1,4-dihydropyridazin-3-yl}methyl)phenyl] carbamate]: the IC50 was below 100 nM.

The record behind these values is patent publication US20120264735A1 (priority 2009, published 2012).
